Experimental data as given in the NIST ThermoML archive (doi:10.1016/j.tca.2015.02.020).

Test: molar heat capacity at constant pressure; xn = mol fraction of the nth substance listed
Settings: 101 kPa, Small sample (50 mg) DSC

NCCCO [3-amino-1-propanol] + O
Settings	molar heat capacity at constant pressure [J/K/mol]
125.42 K, Glass, x1 = 0.19	28.29
125.42 K, Glass, x1 = 0.26	32.2
126.01 K, Glass, x1 = 0.68	47.75
126.94 K, Glass, x1 = 0.19	29.15
127.1 K, Glass, x1 = 0.26	32.2
127.56 K, Glass, x1 = 0.16	28.24
127.59 K, Glass, x1 = 0.16	29.05
128.06 K, Glass, x1 = 0.68	51.16
129.29 K, Glass, x1 = 0.19	30.02
130.07 K, Glass, x1 = 0.26	33.19
130.83 K, Glass, x1 = 0.16	29.05
130.83 K, Glass, x1 = 0.68	52.29
131.76 K, Glass, x1 = 0.19	30.6
131.92 K, Glass, x1 = 0.26	33.19
132.24 K, Glass, x1 = 0.16	30.41
132.71 K, Glass, x1 = 0.68	52.86
133.95 K, Glass, x1 = 0.19	31.46
134.1 K, Glass, x1 = 0.16	30.14
134.11 K, Glass, x1 = 0.68	54
134.74 K, Glass, x1 = 0.26	34.17
135.04 K, Glass, x1 = 0.19	31.46
135.2 K, Glass, x1 = 0.26	33.85
136.92 K, Glass, x1 = 0.16	32.04
137.39 K, Glass, x1 = 0.68	54.57
138.63 K, Glass, x1 = 0.19	33.19
139.41 K, Glass, x1 = 0.26	35.49
140.66 K, Glass, x1 = 0.16	31.77
140.66 K, Glass, x1 = 0.68	56.27
141.59 K, Glass, x1 = 0.16	33.94
141.6 K, Glass, x1 = 0.19	33.48
141.75 K, Glass, x1 = 0.26	35.82
142.07 K, Glass, x1 = 0.68	56.27
143.47 K, Glass, x1 = 0.19	34.92
143.95 K, Glass, x1 = 0.16	32.58
143.95 K, Glass, x1 = 0.68	57.98
144.1 K, Glass, x1 = 0.26	36.47
144.88 K, Glass, x1 = 0.19	34.64
145.04 K, Glass, x1 = 0.26	36.8
146.28 K, Glass, x1 = 0.16	36.65
146.75 K, Glass, x1 = 0.68	56.84
148.16 K, Glass, x1 = 0.19	37.23
148.79 K, Glass, x1 = 0.26	39.1
150.53 K, Glass, x1 = 0.16	34.75
150.53 K, Glass, x1 = 0.68	60.25
150.98 K, Glass, x1 = 0.16	40.73
151.45 K, Glass, x1 = 0.68	57.98
151.46 K, Glass, x1 = 0.19	36.94
151.62 K, Glass, x1 = 0.26	39.1
152.86 K, Glass, x1 = 0.19	40.99
153.81 K, Glass, x1 = 0.16	36.65
153.82 K, Glass, x1 = 0.68	61.96
154.75 K, Glass, x1 = 0.19	38.39
154.91 K, Glass, x1 = 0.26	40.42
156.15 K, Glass, x1 = 0.68	60.25
160.4 K, Glass, x1 = 0.68	65.37
161.49 K, Glass, x1 = 0.26	45.02
163.69 K, Glass, x1 = 0.68	67.64
165.08 K, Liquid, x1 = 0.16	65.7
166.96 K, Liquid, x1 = 0.19	68.12
169.79 K, Liquid, x1 = 0.16	66.79
170.28 K, Liquid, x1 = 0.16	66.25
171.23 K, Liquid, x1 = 0.19	71.87
171.67 K, Liquid, x1 = 0.19	69.27
173.58 K, Liquid, x1 = 0.16	66.79
174.5 K, Liquid, x1 = 0.16	67.06
174.5 K, Liquid, x1 = 0.26	77.55
174.53 K, Liquid, x1 = 0.19	71.87
174.68 K, Liquid, x1 = 0.26	82.48
176.39 K, Liquid, x1 = 0.19	69.56
179.21 K, Liquid, x1 = 0.16	67.6
179.21 K, Liquid, x1 = 0.26	77.88
179.69 K, Liquid, x1 = 0.68	127.32
180.18 K, Liquid, x1 = 0.16	67.88
180.19 K, Liquid, x1 = 0.68	138.69
181.09 K, Liquid, x1 = 0.19	69.85
181.12 K, Liquid, x1 = 0.19	72.74
181.28 K, Liquid, x1 = 0.26	82.81
183.49 K, Liquid, x1 = 0.16	68.69
183.49 K, Liquid, x1 = 0.68	138.69
183.93 K, Liquid, x1 = 0.16	68.42
183.93 K, Liquid, x1 = 0.26	78.21
184.41 K, Liquid, x1 = 0.68	127.32
184.43 K, Liquid, x1 = 0.19	73.31
184.59 K, Liquid, x1 = 0.26	83.14
185.82 K, Liquid, x1 = 0.19	70.43
188.65 K, Liquid, x1 = 0.16	69.5
188.65 K, Liquid, x1 = 0.26	78.86
189.12 K, Liquid, x1 = 0.68	127.32
190.09 K, Liquid, x1 = 0.16	70.05
190.1 K, Liquid, x1 = 0.68	139.26
190.54 K, Liquid, x1 = 0.19	71.29
191.04 K, Liquid, x1 = 0.19	75.04
191.2 K, Liquid, x1 = 0.26	84.12
193.38 K, Liquid, x1 = 0.16	70.32
193.38 K, Liquid, x1 = 0.26	79.52
193.4 K, Liquid, x1 = 0.16	70.05
193.41 K, Liquid, x1 = 0.68	139.83
193.85 K, Liquid, x1 = 0.68	127.32
194.35 K, Liquid, x1 = 0.19	75.62
194.51 K, Liquid, x1 = 0.26	84.78
195.27 K, Liquid, x1 = 0.19	71.87
198.1 K, Liquid, x1 = 0.16	71.41
198.1 K, Liquid, x1 = 0.26	79.85
198.58 K, Liquid, x1 = 0.68	127.89
199.99 K, Liquid, x1 = 0.19	73.02
200.03 K, Liquid, x1 = 0.68	140.96
200.98 K, Liquid, x1 = 0.19	77.06
201.13 K, Liquid, x1 = 0.26	86.42
202.83 K, Liquid, x1 = 0.16	72.49
202.84 K, Liquid, x1 = 0.26	80.84
203.31 K, Liquid, x1 = 0.68	129.03
203.35 K, Liquid, x1 = 0.68	141.53
204.28 K, Liquid, x1 = 0.19	77.64
204.44 K, Liquid, x1 = 0.26	86.75
204.72 K, Liquid, x1 = 0.19	73.89
207.56 K, Liquid, x1 = 0.16	73.85
207.57 K, Liquid, x1 = 0.26	81.82
208.04 K, Liquid, x1 = 0.68	129.03
209.45 K, Liquid, x1 = 0.19	75.33
209.97 K, Liquid, x1 = 0.68	142.1
210.91 K, Liquid, x1 = 0.19	78.22
211.07 K, Liquid, x1 = 0.26	88.06
212.29 K, Liquid, x1 = 0.16	75.21
212.29 K, Liquid, x1 = 0.26	82.81
212.78 K, Liquid, x1 = 0.68	130.16
213.28 K, Liquid, x1 = 0.68	142.67
214.19 K, Liquid, x1 = 0.19	76.49
214.23 K, Liquid, x1 = 0.19	79.09
214.38 K, Liquid, x1 = 0.26	89.05
217.03 K, Liquid, x1 = 0.16	76.56
217.04 K, Liquid, x1 = 0.26	84.12
217.51 K, Liquid, x1 = 0.68	131.3
218.93 K, Liquid, x1 = 0.19	78.22
220.86 K, Liquid, x1 = 0.19	81.11
221.02 K, Liquid, x1 = 0.26	90.36
221.77 K, Liquid, x1 = 0.16	78.19
221.77 K, Liquid, x1 = 0.26	85.11
222.25 K, Liquid, x1 = 0.68	133
223.67 K, Liquid, x1 = 0.19	79.95
224.18 K, Liquid, x1 = 0.19	83.13
224.35 K, Liquid, x1 = 0.26	91.35
226.51 K, Liquid, x1 = 0.16	79.55
226.51 K, Liquid, x1 = 0.26	86.42
226.99 K, Liquid, x1 = 0.68	133.57
228.4 K, Liquid, x1 = 0.19	81.39
230.81 K, Liquid, x1 = 0.19	87.46
230.97 K, Liquid, x1 = 0.26	93.32
231.25 K, Liquid, x1 = 0.16	81.18
231.25 K, Liquid, x1 = 0.26	88.06
231.73 K, Liquid, x1 = 0.68	134.71
233.15 K, Liquid, x1 = 0.19	82.84
234.29 K, Liquid, x1 = 0.26	94.31
235.99 K, Liquid, x1 = 0.16	82.54
235.99 K, Liquid, x1 = 0.26	89.71
236.47 K, Liquid, x1 = 0.68	135.85
237.88 K, Liquid, x1 = 0.19	84.28
240.73 K, Liquid, x1 = 0.16	83.89
240.73 K, Liquid, x1 = 0.26	91.02
240.77 K, Liquid, x1 = 0.19	89.19
240.93 K, Liquid, x1 = 0.26	96.61
241.21 K, Liquid, x1 = 0.68	137.55
242.63 K, Liquid, x1 = 0.19	85.72
244.1 K, Liquid, x1 = 0.19	90.63
244.25 K, Liquid, x1 = 0.26	97.92
245.48 K, Liquid, x1 = 0.16	85.52
245.48 K, Liquid, x1 = 0.26	92.66
245.96 K, Liquid, x1 = 0.68	138.69
247.38 K, Liquid, x1 = 0.19	87.17
249.79 K, Liquid, x1 = 0.16	90.14
250.23 K, Liquid, x1 = 0.16	86.88
250.23 K, Liquid, x1 = 0.26	94.31
250.71 K, Liquid, x1 = 0.68	140.39
250.75 K, Liquid, x1 = 0.19	93.23
250.9 K, Liquid, x1 = 0.26	100.22
252.13 K, Liquid, x1 = 0.19	88.61
253.11 K, Liquid, x1 = 0.16	91.5
254.07 K, Liquid, x1 = 0.19	94.09
254.23 K, Liquid, x1 = 0.26	101.21
254.97 K, Liquid, x1 = 0.16	88.24
254.98 K, Liquid, x1 = 0.26	95.95
255.46 K, Liquid, x1 = 0.68	142.1
256.88 K, Liquid, x1 = 0.19	90.05
259.73 K, Liquid, x1 = 0.16	89.32
259.73 K, Liquid, x1 = 0.26	97.59
259.77 K, Liquid, x1 = 0.16	93.94
260.2 K, Liquid, x1 = 0.68	143.8
260.72 K, Liquid, x1 = 0.19	96.4
260.88 K, Liquid, x1 = 0.26	103.84
261.62 K, Liquid, x1 = 0.19	91.5
263.1 K, Liquid, x1 = 0.16	95.03
264.05 K, Liquid, x1 = 0.19	97.56
264.21 K, Liquid, x1 = 0.26	104.82
264.47 K, Liquid, x1 = 0.16	90.68
264.48 K, Liquid, x1 = 0.26	99.24
264.96 K, Liquid, x1 = 0.68	146.08
266.1 K, Liquid, x1 = 0.16	96.11
266.1 K, Liquid, x1 = 0.19	98.13
266.1 K, Liquid, x1 = 0.26	105.48
266.38 K, Liquid, x1 = 0.19	92.94
269.23 K, Liquid, x1 = 0.16	91.77
269.23 K, Liquid, x1 = 0.26	100.55
269.72 K, Liquid, x1 = 0.68	147.21
269.76 K, Liquid, x1 = 0.16	97.2
269.76 K, Liquid, x1 = 0.68	158.01
270.7 K, Liquid, x1 = 0.19	99.29
270.87 K, Liquid, x1 = 0.26	106.79
271.14 K, Liquid, x1 = 0.19	94.38
273.09 K, Liquid, x1 = 0.16	98.01
273.1 K, Liquid, x1 = 0.68	156.88
274.02 K, Liquid, x1 = 0.16	92.85
274.02 K, Liquid, x1 = 0.26	102.19
274.07 K, Liquid, x1 = 0.19	100.16
274.24 K, Liquid, x1 = 0.26	107.45
274.52 K, Liquid, x1 = 0.68	149.49
278.94 K, Liquid, x1 = 0.16	94.21
278.94 K, Liquid, x1 = 0.19	96.4
278.94 K, Liquid, x1 = 0.26	103.51
279.44 K, Liquid, x1 = 0.68	151.19
279.97 K, Liquid, x1 = 0.16	99.1
279.98 K, Liquid, x1 = 0.68	157.45
280.95 K, Liquid, x1 = 0.19	101.02
281.12 K, Liquid, x1 = 0.26	108.77
283.41 K, Liquid, x1 = 0.16	98.83
283.42 K, Liquid, x1 = 0.68	156.88
283.84 K, Liquid, x1 = 0.16	94.75
283.85 K, Liquid, x1 = 0.19	97.27
283.85 K, Liquid, x1 = 0.26	104.82
284.35 K, Liquid, x1 = 0.68	151.76
284.4 K, Liquid, x1 = 0.19	101.02
284.56 K, Liquid, x1 = 0.26	108.77
